For data set [1], the system named is MDA-MB231 (breast). Description: Cell growth inhibition (MTS), MDA-MB231. The class given is cell-based, human. As to conditions: for GI50: read-out: GI50 MDA-MB-231 (breast). As to the method: (§1) Cell Growth Inhibition[34] Cells were plated (500-2000 cells/well depending on the cell line) in 96-well microplates, allowed to attach and grow for 48 h, then treated with vehicle (4% DMSO, a concentration that allowed doubling times of 24 h or less) or test agent (50, 10, 2, 0.4 and 0.08 μM for the new agents; 0.001, 0.005, 0.010, 0.020 and 0.100 μM for paclitaxel and discodermolide) for the given times. One plate consisted of cells from each line used for a time zero cell number determination. The other plates in a given determination contained eight wells of control cells, eight wells of medium and each agent concentration tested in quadruplicate. Cell numbers were obtained spectrophotometrically (absorbance at 490 nm minus that at 630 nm) in a Dynamax plate reader after treatment with 3-(4,5-dimethylthiazol-2-yl)-5-(3-carboxymethoxyphenyl)-2-(4-sulfophenyl)-2H-tetrazolium (MTS) using phenazine methanesulfonate as the electron acceptor. After initial screening with the above 5-fold dilutions, fifty percent growth inhibitory concentration (GI50) values were determined for each agent by repeating the screen using 2-fold dilutions (five concentrations) centered on the initial estimated GI50 concentration, again in quadruplicate.

Data set [2] relates to paclitaxel binding site on tubulin. The data set can be described thus: Paclitaxel binding site inhibition assay ([3H]paclitaxel displacement from microtubules). Also on record: species or system bovine. The note with it: for Displacement of [3H]paclitaxel (%): 4 μM test agent, 2 μM [3H]paclitaxel, microtubules from 2 μM tubulin and 20 μM dideoxyGTP. How it is done:
(§2) General. Tubulin without microtubule-associated proteins was prepared from fresh bovine brains[32] The normoisotopic and tritiated forms of paclitaxel and normoisotopic docetaxel were provided by the Drug Synthesis and Chemistry Branch, National Cancer Institute. (+)-Discodermolide was from Novartis Pharmaceutical Corporation. Ca^2+- and Mg^2+-free RPMI-1640 culture medium were from GIBCO/BRL-Life Technologies. Fetal bovine serum (FBS) was from Hyclone. Cell lines were obtained from American Type Culture Collection (Manassas, Va.).
Paclitaxel binding site inhibition assay. A stock solution of [^3H]paclitaxel (26.8 μM, 16.2 Ci/mmol), obtained from the NCI, was prepared in 37% (v/v) DMSO. The test agents were prepared in 25% (v/v) DMSO-0.75 M monosodium glutamate (prepared from a 2M stock solution adjusted to pH 6.6 with HCl). The radiolabeled paclitaxel and test agents, as indicated in terms of final concentrations, were mixed in equal volumes and warmed to 37° C. A reaction mixture (50 μL) containing 0.75 M monosodium glutamate, 4.0 μM tubulin, and 40 μM ddGTP (a non-hydrolyzable analog of GTP) was prepared and incubated at 37° C. for 30 min to preform microtubules. An equivalent volume of drug mixture with [^3H]paclitaxel was added to preformed polymer and incubated for 30 min at 37° C. Bound [^3H]paclitaxel was separated from free drug by centrifugation of the reaction mixtures at 14000 rpm for 20 min at room temperature. Non-specific binding was determined by addition of a 12-fold excess of docetaxel. Radioactive counts from the supernatant (50 μL) were determined by scintillation spectrometry. Bound [^3H]paclitaxel was calculated from the following: total paclitaxel added to each reaction mixture minus the paclitaxel present in the supernatant (free drug). The % bound values were normalized to the control values with no inhibitor added.

The subject of data set [3] is 2008 (ovarian). Description: Cell growth inhibition (MTS), 2008. The data set is classed as cell-based, human. As to conditions: read-out: GI50 2008 (ovary). As to the method:
as §1

In data set [4] the test system is tubulin. The class given is biochemical, bovine. As to conditions: for properties of the induced polymer: speed of induction, resistance to cold-induced disassembly (in words): FIGS. 6A, 6C, 6D, analogs at somewhat lower potencies than discodermolide; for microtubule hypernucleation activity (in words): comparison with analog 40, FIGS. 6A-D and Table 1; for MT stabilizing activity (%): tubulin assembly induced by test agent at 10 μM vs. 10 μM paclitaxel (100%), single determinations at 30° C. As to the method:
as §2
Tubulin Polymerization[32] Tubulin assembly was followed in a Beckman-Coulter 7400 spectrophotometer, equipped with an electronic Peltier temperature controller, reading absorbance (turbidity) at 350 nm. Reaction mixtures (0.25 mL final volume) contained tubulin (final concentration 10 μM; 1 mg/mL), monosodium glutamate (0.8 M from a stock solution adjusted to pH 6.6 with HCl), DMSO (final volume 4% v/v), and differing concentrations of test agent where indicated. Reaction mixtures without test agent were cooled to 0° C. and added to cuvettes held at 0.25-0.5° C. in the spectrophotometer. Test agent in DMSO was then rapidly mixed in the reaction mixture. Each run contained one positive control (paclitaxel, 10 μM final concentration) and one negative control (DMSO only). Baselines were established at 0.25-2.5° C. and temperature was rapidly raised to 30° C. (in approximately 1 min) and held there for 20 min.

The conditions of data set [5]: ester bond, 2,4,6-trichlorobenzoyl chloride / Et3N / DMAP, toluene, 25.0 °C, 16.0 h.
[6] abbreviates: Homo sapiens, MDA-MB-231, read-out: 50% growth inhibitory concentration.
Setting [7] is: 72 hours continuous exposure (footnote b), mean ± SD, N = 4.
[8] abbreviates: Table 2, applies to both human cancer cell lines, breast (MDA-MB-231) and ovarian (2008), read-out: 50% growth inhibitory concentration.

Like-named read-outs stand apart in the source and are kept apart here.

On to `C=CC=C[C@H](C)[C@@H](O)[C@H](C)[C@H](O)CCC=C[C@H](C)[C@@H](O)[C@@H](C)C=CCCCCCCCCC(=O)OC` [Compound 48, (12S,13S,14S,19R,20R,21R,22S)-13,19,21-Trihydroxy-12,14,20,22-tetramethylhexacosa-10,15,23,25-tetraenoic acid methyl ester], for which the GI50 was determined as 26 ± 3 µM in data set [1] (Homo sapiens, MDA-MB-231, 48 h) and 19 ± 2 µM in data set [3] (Homo sapiens, 48 h). The IC50 in data set [1] (setting [6]) was in the range of 15 to 30 µM. Besides, in data set [2] (N = 6, means ± SD), the “Displacement of [3H]paclitaxel (%)” value was 17 ± 1%.

On to `C=CC=C[C@H](C)[C@@H](O)[C@H](C)[C@H](O)CCC=C[C@H](C)[C@@H](O)[C@@H](C)C=CCCCCCCCCCO` [Compound 47, (12S,13S,14S,19R,20R,21R,22S)-12,14,20,22-Tetramethylhexacosa-10,15,23,25-tetraene-1,13,19,21-tetraol], for which the GI50 in data set [1] (Homo sapiens, MDA-MB-231, 48 h) came out at 18 ± 1 µM; in data set [3] (Homo sapiens, 48 h), 22 ± 5 µM. Besides, in data set [1] (setting [6]), the IC50 lay within 15 to 30 µM. The “Displacement of [3H]paclitaxel (%)” value in data set [2] (N = 6, means ± SD) was 21 ± 2%.

For the molecule `C=CC=C[C@H](C)[C@H]1OC(=O)CCCCCCCCC=C[C@H](C)[C@H](O)[C@@H](C)C=CCC[C@@H](O)[C@H]1C` [Compound 43, (1S,13S,14S,15S,20R,21R,22R)-14,20-Dihydroxy-13,15,21-trimethyl-22-(1-methylpenta-2,4-dienyl)-oxacyclodocosa-11,16-dien-2-one], the GI50 in data set [1] (Homo sapiens, MDA-MB-231, 48 h) worked out at 27 ± 1 µM; in data set [3] (Homo sapiens, 48 h), 16 ± 1 µM. Also, the IC50 in data set [1] (setting [6]) was in the range of 15 to 30 µM. Besides, the “Displacement of [3H]paclitaxel (%)” value in data set [2] (N = 6, means ± SD) came to 18 ± 5%.

Take `C=C/C=C\[C@H](C)[C@H](OC(N)=O)[C@@H](C)[C@H](O)CC/C=C\[C@H](C)[C@H](O)[C@@H](C)/C=C\CC[C@@H]1OC(=O)[C@H](C)[C@@H](OCOC)[C@H]1C` [Compound 41]: the “50% growth inhibitory (GI50) concentration (in words)” value in data set [1] (cellular activity, cell line not given) was “submicromolar”. For the same molecule, in data set [2], the “affinity for the paclitaxel binding site on tubulin (in words)” value is “considerable affinity” and the “Displacement of [3H]paclitaxel (%)” value is reported as 57 ± 2%. The “displacement of [3H]paclitaxel from microtubules, comparison (in words)” value in data set [2] (2-fold molar excess of test agent) was “better than paclitaxel and at almost the same potency as discodermolide”. Besides, in data set [4], the “properties of the induced polymer: speed of induction, resistance to cold-induced disassembly (in words)” value was “more rapid polymer-inducing and cold-resistant properties”; the “microtubule hypernucleation activity (in words)” value is given as “better microtubule hypernucleation activities than the analog 40”; the “MT stabilizing activity (%)” value is on record as 27%.

As for `C=CC=CC(C)[C@H]1OC(=O)C=CC=C[C@@H](C)[C@H](O)CCC=C[C@H](C)[C@H](O)[C@@H](C)C=CCC[C@@H](O)[C@H]1C` (stereo partly drawn) [Compound 54, (7R,8R,13S,14S,15S,20R,21R,22R,23S)-8,14,20-Trihydroxy-7,13,15,21-tetramethyl-22-(1-methylpenta-2,4-dienyl)-oxacyclodocosa-3,5,11,16-tetraen-2-one], the concentration for 50% growth inhibition (GI50) in data set [1] (setting [7]) is 1.4 ± 0.1 µM; in data set [3] (setting [7]), 1 ± 0.1 µM. For the same molecule, in data set [1] (setting [8]), the IC50 is around 1 µM. Also, the “Displacement of [3H]paclitaxel (%)” value in data set [2] (N = 6, means ± SD) was 27 ± 8%. Besides, the “potency of [3H]paclitaxel displacement relative to discodermolide” value in data set [2] ([3H]paclitaxel stoichiometrically bound to microtubules) is given as “about ⅓”.

Consider `C=C/C=C\[C@H](C)[C@H]1OC(=O)/C=C\C=C\[C@@H](C)[C@H](OCc2ccc(OC)cc2)CC/C=C\[C@H](C)[C@H](OCc2ccc(OC)cc2)[C@@H](C)/C=C\CC[C@@H](OCc2ccc(OC)cc2)[C@H]1C`, for which the ring closure, yield of all isomers in data set [5] (from C=C/C=C\[C@H](C)[C@@H](O)[C@H](C)[C@@H](CC/C=C\[C@H](C)[C@@H](OCc1ccc(OC)cc1)[C@@H](C)/C=C\CC[C@@H](OCc1ccc(OC)cc1)[C@H](C)/C=C/C=C\C(=O)O)OCc1ccc(OC)cc1, 2 steps) amounted to 79%.

With `C=C/C=C\[C@H](C)[C@H](OC(N)=O)[C@@H](C)[C@H](O)CC/C=C\[C@H](C)[C@H](O)[C@@H](C)/C=C\CC[C@@H]1O[C@@H](OC)[C@H](C)[C@@H](OCOC)[C@H]1C` [Compound 42, Carbamic acid, (1S,2S,3R,6Z,8S,9S,1S,11Z)-3,9-dihydroxy-14-[(2S,3S,4S,5R,6R)-6-methoxy-4-methoxymethoxy-3,5-dimethyltetrahydropyran-2-yl]-2,8,10-trimethyl-1-[(1S,2Z)-1-methylpenta-2,4-dienyl]tetradeca-6,11-dienyl ester], the “Displacement of [3H]paclitaxel (%)” value in data set [2] stood at 19 ± 2%. In data set [4], the “properties of the induced polymer: speed of induction, resistance to cold-induced disassembly (in words)” value was “more rapid polymer-inducing and cold-resistant properties”; the “microtubule hypernucleation activity (in words)” value is listed as “better microtubule hypernucleation activities than the analog 40”; the “MT stabilizing activity (%)” value was found to be 11%.

Consider `C=C/C=C\[C@H](C)[C@H]1OC(=O)CCCCCCCC/C=C\[C@H](C)[C@H](OCc2ccc(OC)cc2)[C@@H](C)/C=C\CC[C@@H](OCc2ccc(OC)cc2)[C@H]1C`, for which, in data set [5] (from C=C/C=C\[C@H](C)[C@@H](O)[C@H](C)[C@@H](CC/C=C\[C@H](C)[C@@H](OCc1ccc(OC)cc1)[C@@H](C)/C=C\CCCCCCCCC(=O)O)OCc1ccc(OC)cc1, 1.93 mM), the ring closure, yield of all isomers worked out at 57%.

As to `C=C/C=C\[C@H](C)[C@@H]1OC(=O)/C=C\C=C\[C@@H](C)[C@@H](O[Si](C)(C)C(C)(C)C)C[C@H](O[Si](C)(C)C(C)(C)C)/C=C\[C@H](C)[C@H](O)[C@@H](C)C[C@@H](C)CCC(O[Si](C)(C)C(C)(C)C)[C@@H]1C` (some centres unmarked), the ring closure, yield of all isomers in data set [5] (from C=C/C=C\[C@H](C)[C@H](O)[C@@H](C)C(CC[C@H](C)C[C@H](C)[C@@H](O)[C@@H](C)/C=C\[C@H](C[C@H](O[Si](C)(C)C(C)(C)C)[C@H](C)/C=C/C=C\C(=O)O)O[Si](C)(C)C(C)(C)C)O[Si](C)(C)C(C)(C)C, 1.77 mM, 2 steps) stood at 49%.

For the molecule `C=CC=C[C@H](C)[C@@H](O)[C@H](C)[C@H](O)CCC=C[C@H](C)[C@@H](O)[C@@H](C)C=CCCCCCCCCC(=O)O` [Compound 49, (12S,13S,14S,19R,20R,21R,22S)-13,19,21-Trihydroxy-12,14,20,22-tetramethylhexacosa-10,15,23,25-tetraenoic acid], the GI50 in data set [1] (Homo sapiens, MDA-MB-231, 48 hours continuous exposure, mean ± SD, N = 4) is above 50 µM; in data set [3] (Homo sapiens, 48 hours continuous exposure, mean ± SD, N = 4), above 50 µM. Besides, the IC50 in data set [1] (setting [8]) is above 50 µM. Also, the “Displacement of [3H]paclitaxel (%)” value in data set [2] (N = 6, means ± SD) came to 16 ± 3%.

The values are drawn from patent US20060270862A1, “Analogs of discodermolide and dictyostatin-1, intermediates therefor and methods of synthesis thereof” (priority 2002, published 2006).
